Experimental data reported in ChEMBL document CHEMBL1201862, “PubChem BioAssay data set” (2004).
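Interpolation was linear, between the two tested concentrations surrounding the appropriate level; five concentrations were tested over 48 hours in 96-well plates. GI50 = concentration required for 50% inhibition of growth.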 Active and inactive are the calls of the source. Cut-off read from the data, not from the text of the source: active = GI50 up to about 1.1 µM and inactive = higher.

How the values were obtained:
Test in all cases: NCI-60 cell line screen, 48 h
786-0 = test system: 786-0
A498 = test system: A498
A549 = test system: A549
ACHN = test system: ACHN
BT-549 = test system: BT-549
CAKI-1 = test system: CAKI-1
COLO 205 = test system: COLO 205
DU-145 = test system: DU-145
EKVX = test system: EKVX
HCT-116 = test system: HCT-116
HCT-15 = test system: HCT-15
HOP-62 = test system: HOP-62
HOP-92 = test system: HOP-92
HT-29 = test system: HT-29
IGROV-1 = test system: IGROV-1
K562 = test system: K562
KM12 = test system: KM12
LOX IMVI = test system: LOX IMVI
M14 = test system: M14
MDA-MB-231 = test system: MDA-MB-231
MDA-MB-435 = test system: MDA-MB-435
MDA-N = test system: MDA-N
MOLT-4 = test system: MOLT-4
Malme-3M = test system: Malme-3M
NCI-H226 = test system: NCI-H226
NCI-H23 = test system: NCI-H23
NCI-H460 = test system: NCI-H460
NCI-H522 = test system: NCI-H522
NCI/ADR-RES = test system: NCI/ADR-RES
OVCAR-3 = test system: OVCAR-3
OVCAR-4 = test system: OVCAR-4
OVCAR-5 = test system: OVCAR-5
OVCAR-8 = test system: OVCAR-8
RPMI-8226 = test system: RPMI-8226
RXF 393 = test system: RXF 393
SF-268 = test system: SF-268
SF-295 = test system: SF-295
SF-539 = test system: SF-539
SK-MEL-28 = test system: SK-MEL-28
SK-MEL-5 = test system: SK-MEL-5
SK-OV-3 = test system: SK-OV-3
SN12C = test system: SN12C
SNB-19 = test system: SNB-19
SNB-75 = test system: SNB-75
SW-620 = test system: SW-620
T47D = test system: T47D
TK-10 = test system: TK-10
U-251 = test system: U-251
UACC-257 = test system: UACC-257
UO-31 = test system: UO-31
CCRF-CEM = test system: CCRF-CEM
HCC 2998 = test system: HCC 2998
HL-60 = test system: HL-60
Hs-578T = test system: Hs-578T
MCF7 = test system: MCF7
PC-3 = test system: PC-3
SK-MEL-2 = test system: SK-MEL-2
SR = test system: SR

Measured: GI50

CC(=O)[C@@]1(c2ccccc2)CC2(CCN(C)CC2)O[C@H]1C
> 100 µM: HCT-15
inactive: 786-0 > 100 µM | A498 > 100 µM | A549 > 100 µM | ACHN > 100 µM | BT-549 > 100 µM | CAKI-1 > 100 µM | COLO 205 > 100 µM | DU-145 > 100 µM | EKVX > 100 µM | HCT-116 > 100 µM | HOP-62 > 100 µM | HOP-92 > 100 µM | HT-29 > 100 µM | IGROV-1 > 100 µM | K562 > 100 µM | KM12 > 100 µM | LOX IMVI > 100 µM | M14 > 100 µM | MDA-MB-231 > 100 µM | MDA-MB-435 > 100 µM | MDA-N > 100 µM | MOLT-4 > 100 µM | Malme-3M > 100 µM | NCI-H226 > 100 µM | NCI-H23 > 100 µM | NCI-H460 > 100 µM | NCI-H522 > 100 µM | NCI/ADR-RES > 100 µM | OVCAR-3 > 100 µM | OVCAR-4 > 100 µM | OVCAR-5 > 100 µM | OVCAR-8 > 100 µM | RPMI-8226 > 100 µM | RXF 393 > 100 µM | SF-268 > 100 µM | SF-295 > 100 µM | SF-539 > 100 µM | SK-MEL-28 > 100 µM | SK-MEL-5 > 100 µM | SK-OV-3 > 100 µM | SN12C > 100 µM | SNB-19 > 100 µM | SNB-75 > 100 µM | SW-620 > 100 µM | T47D > 100 µM | TK-10 > 100 µM | U-251 > 100 µM | UACC-257 > 100 µM | UO-31 > 100 µM

C=C(NC(=O)C(=C)NC(=O)c1ccc2c(n1)-c1coc(n1)C(=C)NC(=O)C(=C)NC(=O)c1nc(oc1C)C(=C)NC(=O)C(C(C)(C)O)NC(=O)C(=C)NC(=O)c1coc(n1)/C(=C/C)NC(=O)[C@H]([C@@H](C)O)NC(=O)c1csc-2n1)C(N)=O (stereo partly specified)
inactive: 786-0 > 87.5 µM | A498 > 87.5 µM | A549 > 87.5 µM | ACHN > 87.5 µM | BT-549 37.3 µM | CAKI-1 > 87.5 µM | CCRF-CEM > 87.5 µM | COLO 205 72.9 µM | DU-145 > 87.5 µM | EKVX > 87.5 µM | HCC 2998 > 87.5 µM | HCT-116 > 87.5 µM | HL-60 > 87.5 µM | HOP-62 81.5 µM | HOP-92 > 87.5 µM | HT-29 > 8.75 µM | Hs-578T > 87.5 µM | IGROV-1 61.1 µM | K562 > 87.5 µM | KM12 66.7 µM | LOX IMVI 53.8 µM | M14 55 µM | MCF7 > 87.5 µM | MDA-MB-231 > 87.5 µM | MDA-MB-435 > 87.5 µM | MDA-N > 87.5 µM | MOLT-4 > 87.5 µM | Malme-3M > 87.5 µM | NCI-H226 > 87.5 µM | NCI-H23 > 87.5 µM | NCI-H460 59.2 µM | NCI-H522 > 87.5 µM | NCI/ADR-RES > 87.5 µM | OVCAR-3 > 87.5 µM | OVCAR-4 > 87.5 µM | OVCAR-5 > 87.5 µM | OVCAR-8 > 87.5 µM | PC-3 > 87.5 µM | RPMI-8226 > 87.5 µM | RXF 393 > 87.5 µM | SF-268 > 87.5 µM | SF-295 > 87.5 µM | SF-539 > 87.5 µM | SK-MEL-28 > 87.5 µM | SK-MEL-2 > 87.5 µM | SK-MEL-5 41.6 µM | SN12C > 87.5 µM | SNB-19 > 87.5 µM | SNB-75 > 87.5 µM | SR > 87.5 µM | SW-620 > 87.5 µM | TK-10 > 87.5 µM | U-251 > 87.5 µM | UACC-257 > 87.5 µM | UO-31 > 87.5 µM
> 87.5 µM: HCT-15
